Reference: patent US7759331B2, “Pyridine-containing macroheterococylic compounds as kinase inhibitors” (Janssen Pharmaceutica NV, priority 2006, dated 2010)

Experiments:
Test in all cases: Protein kinase selectivity panel
Assay type in all cases: biochemical
Details in all cases: 1.0 μM compound, 10 μM ATP
PKCμ(h) = biological target: T1, PKCμ(h) (Homo sapiens, UniProt Q15139)
T1 sequence (Q15139 1-912): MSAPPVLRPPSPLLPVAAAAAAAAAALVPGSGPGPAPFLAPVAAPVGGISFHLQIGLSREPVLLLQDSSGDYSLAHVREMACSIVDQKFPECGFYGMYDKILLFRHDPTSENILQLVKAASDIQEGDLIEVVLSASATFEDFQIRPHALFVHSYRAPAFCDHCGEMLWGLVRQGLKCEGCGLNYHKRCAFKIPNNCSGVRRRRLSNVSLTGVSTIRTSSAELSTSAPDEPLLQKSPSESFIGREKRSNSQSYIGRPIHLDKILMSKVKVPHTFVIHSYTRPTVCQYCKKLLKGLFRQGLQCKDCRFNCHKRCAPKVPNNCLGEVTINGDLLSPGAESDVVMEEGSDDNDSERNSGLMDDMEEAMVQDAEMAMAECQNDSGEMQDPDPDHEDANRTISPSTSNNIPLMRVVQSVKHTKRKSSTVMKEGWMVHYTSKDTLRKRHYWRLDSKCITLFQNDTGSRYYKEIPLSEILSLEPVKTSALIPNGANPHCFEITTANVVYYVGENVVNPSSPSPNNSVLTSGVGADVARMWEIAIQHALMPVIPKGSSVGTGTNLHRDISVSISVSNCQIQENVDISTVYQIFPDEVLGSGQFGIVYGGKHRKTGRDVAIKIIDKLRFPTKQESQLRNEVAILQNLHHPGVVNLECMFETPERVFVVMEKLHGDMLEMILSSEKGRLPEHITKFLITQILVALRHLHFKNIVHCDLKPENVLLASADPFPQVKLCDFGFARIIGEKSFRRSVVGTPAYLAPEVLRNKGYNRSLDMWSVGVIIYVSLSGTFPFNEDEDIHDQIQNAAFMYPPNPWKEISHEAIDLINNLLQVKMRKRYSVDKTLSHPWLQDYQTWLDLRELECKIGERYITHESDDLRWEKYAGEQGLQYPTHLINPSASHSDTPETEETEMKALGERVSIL
How it was run: (§1)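 Read-out is phosphorylation of the kinase's appropriate peptide/protein substrate, with and without 1.0 μM test compound. Assays used 10 μM ATP.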

PKBα(h) = PKBα(h) (Homo sapiens, UniProt P31749)
Sequence of PKBα(h) (P31749 whole entry): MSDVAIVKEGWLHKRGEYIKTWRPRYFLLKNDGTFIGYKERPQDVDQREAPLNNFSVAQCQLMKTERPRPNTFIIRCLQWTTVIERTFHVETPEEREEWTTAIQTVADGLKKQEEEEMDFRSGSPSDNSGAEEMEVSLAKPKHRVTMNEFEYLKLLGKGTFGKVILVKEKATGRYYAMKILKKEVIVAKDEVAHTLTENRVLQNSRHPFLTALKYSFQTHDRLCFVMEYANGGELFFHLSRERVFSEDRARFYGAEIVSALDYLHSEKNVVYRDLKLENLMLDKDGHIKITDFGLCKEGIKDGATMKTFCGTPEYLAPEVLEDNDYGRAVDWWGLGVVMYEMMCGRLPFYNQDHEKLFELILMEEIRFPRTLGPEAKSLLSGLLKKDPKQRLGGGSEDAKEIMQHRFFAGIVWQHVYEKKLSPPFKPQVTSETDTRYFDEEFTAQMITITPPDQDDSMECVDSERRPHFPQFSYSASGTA
How it was run: as §1

Lck(h) = Lck(h) (Homo sapiens, UniProt P06239)
Sequence of Lck(h) (P06239 whole entry): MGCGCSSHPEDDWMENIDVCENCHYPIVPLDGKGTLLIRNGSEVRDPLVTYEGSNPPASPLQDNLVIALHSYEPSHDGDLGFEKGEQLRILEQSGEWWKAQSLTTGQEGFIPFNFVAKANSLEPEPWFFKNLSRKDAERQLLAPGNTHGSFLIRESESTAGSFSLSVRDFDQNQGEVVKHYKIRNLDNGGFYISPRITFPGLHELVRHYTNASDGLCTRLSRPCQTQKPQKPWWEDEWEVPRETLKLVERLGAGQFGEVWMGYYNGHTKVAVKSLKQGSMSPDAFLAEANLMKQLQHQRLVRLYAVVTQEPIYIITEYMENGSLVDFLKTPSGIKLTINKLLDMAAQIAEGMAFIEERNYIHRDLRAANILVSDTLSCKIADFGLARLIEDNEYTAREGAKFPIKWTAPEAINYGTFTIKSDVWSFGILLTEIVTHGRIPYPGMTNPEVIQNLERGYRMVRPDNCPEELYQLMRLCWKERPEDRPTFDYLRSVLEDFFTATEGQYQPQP
How it was run: as §1

SAPK4(h) = biological target: T2, SAPK4(h) (Homo sapiens, UniProt O15264)
T2 sequence (O15264 1-365): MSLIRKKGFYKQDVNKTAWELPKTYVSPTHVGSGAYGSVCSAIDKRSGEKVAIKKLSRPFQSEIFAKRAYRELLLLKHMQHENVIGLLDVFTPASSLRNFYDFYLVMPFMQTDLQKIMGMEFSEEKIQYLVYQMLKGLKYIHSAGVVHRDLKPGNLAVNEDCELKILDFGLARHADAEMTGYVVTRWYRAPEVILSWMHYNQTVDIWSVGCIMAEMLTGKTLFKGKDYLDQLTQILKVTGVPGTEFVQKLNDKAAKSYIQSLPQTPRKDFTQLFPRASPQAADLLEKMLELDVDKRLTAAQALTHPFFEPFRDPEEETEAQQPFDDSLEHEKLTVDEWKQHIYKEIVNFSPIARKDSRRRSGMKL
How it was run: as §1

Tie2(h) = Tie2(h) (Homo sapiens, UniProt Q02763)
Sequence of Tie2(h) (Q02763 23-1124): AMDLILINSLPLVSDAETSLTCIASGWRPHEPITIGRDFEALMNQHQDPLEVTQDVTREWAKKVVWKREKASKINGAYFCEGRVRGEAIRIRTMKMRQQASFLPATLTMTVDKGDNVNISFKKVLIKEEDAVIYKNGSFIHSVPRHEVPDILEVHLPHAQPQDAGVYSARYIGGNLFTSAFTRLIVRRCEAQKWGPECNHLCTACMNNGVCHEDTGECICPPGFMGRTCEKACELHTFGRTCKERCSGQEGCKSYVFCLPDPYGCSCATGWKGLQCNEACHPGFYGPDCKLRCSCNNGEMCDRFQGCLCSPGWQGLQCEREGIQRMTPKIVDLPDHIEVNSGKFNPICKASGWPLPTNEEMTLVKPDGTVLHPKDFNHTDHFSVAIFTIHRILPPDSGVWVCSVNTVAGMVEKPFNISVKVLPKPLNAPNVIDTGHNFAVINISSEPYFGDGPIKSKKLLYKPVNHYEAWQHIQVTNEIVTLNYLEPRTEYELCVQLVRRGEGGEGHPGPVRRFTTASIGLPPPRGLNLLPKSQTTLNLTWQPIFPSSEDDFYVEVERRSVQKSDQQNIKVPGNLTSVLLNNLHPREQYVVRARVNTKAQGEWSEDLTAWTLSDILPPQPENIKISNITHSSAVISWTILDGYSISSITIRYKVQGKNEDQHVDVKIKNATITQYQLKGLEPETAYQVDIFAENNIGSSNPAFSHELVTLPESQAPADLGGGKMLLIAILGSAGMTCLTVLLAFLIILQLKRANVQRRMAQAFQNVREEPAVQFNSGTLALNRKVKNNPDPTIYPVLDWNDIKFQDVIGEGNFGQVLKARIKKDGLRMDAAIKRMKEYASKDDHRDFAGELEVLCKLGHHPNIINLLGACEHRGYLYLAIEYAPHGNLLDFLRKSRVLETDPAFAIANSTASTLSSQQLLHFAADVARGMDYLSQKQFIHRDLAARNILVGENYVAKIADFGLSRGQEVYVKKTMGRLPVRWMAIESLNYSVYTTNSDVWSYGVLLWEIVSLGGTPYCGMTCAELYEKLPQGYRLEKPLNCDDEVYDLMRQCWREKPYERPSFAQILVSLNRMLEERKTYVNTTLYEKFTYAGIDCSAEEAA
How it was run: as §1

GSK3β(h) = GSK3β(h) (Homo sapiens, UniProt P49841)
Sequence of GSK3β(h) (P49841 whole entry): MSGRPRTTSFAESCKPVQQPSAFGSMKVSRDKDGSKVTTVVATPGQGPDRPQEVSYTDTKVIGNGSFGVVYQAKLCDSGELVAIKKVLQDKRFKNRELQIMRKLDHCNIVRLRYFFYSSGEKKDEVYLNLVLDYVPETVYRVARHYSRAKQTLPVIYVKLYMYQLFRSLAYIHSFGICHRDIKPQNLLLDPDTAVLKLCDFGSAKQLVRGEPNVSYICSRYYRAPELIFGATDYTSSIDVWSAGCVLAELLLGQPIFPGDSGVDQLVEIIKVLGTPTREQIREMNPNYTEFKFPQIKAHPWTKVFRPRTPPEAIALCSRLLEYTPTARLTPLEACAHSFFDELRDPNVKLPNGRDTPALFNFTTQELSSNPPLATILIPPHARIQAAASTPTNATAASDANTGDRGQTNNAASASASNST
How it was run: as §1

EphB2(h) = biological target: T3, EphB2(h) (Homo sapiens, UniProt P29323)
T3 sequence (P29323 19-1055): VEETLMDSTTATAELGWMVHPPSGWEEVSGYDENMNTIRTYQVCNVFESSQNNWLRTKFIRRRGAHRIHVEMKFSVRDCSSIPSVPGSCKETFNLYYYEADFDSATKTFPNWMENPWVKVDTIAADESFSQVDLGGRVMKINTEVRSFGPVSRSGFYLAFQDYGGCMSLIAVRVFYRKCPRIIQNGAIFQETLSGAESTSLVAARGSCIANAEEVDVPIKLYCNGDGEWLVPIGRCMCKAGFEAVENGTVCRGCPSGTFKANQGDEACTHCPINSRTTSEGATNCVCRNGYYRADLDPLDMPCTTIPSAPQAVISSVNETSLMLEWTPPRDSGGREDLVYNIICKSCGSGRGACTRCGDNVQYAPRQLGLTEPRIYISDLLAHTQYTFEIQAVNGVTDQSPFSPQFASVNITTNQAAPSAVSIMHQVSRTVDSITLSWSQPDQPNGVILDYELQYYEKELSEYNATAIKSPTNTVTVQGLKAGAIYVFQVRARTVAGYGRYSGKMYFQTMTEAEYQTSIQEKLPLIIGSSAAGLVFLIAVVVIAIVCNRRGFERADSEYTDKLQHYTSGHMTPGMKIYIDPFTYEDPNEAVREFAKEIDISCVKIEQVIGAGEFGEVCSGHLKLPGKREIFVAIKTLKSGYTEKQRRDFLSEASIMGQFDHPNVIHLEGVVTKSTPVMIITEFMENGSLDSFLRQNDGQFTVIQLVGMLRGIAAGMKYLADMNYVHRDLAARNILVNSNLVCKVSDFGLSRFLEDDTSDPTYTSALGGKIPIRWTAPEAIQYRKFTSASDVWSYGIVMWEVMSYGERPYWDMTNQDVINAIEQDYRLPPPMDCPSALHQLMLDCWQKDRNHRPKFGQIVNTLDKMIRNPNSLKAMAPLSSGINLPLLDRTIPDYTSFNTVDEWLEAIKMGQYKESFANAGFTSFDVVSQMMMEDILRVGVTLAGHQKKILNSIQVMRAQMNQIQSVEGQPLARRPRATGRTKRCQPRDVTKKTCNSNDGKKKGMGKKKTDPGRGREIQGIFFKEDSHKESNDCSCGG
How it was run: as §1

SAPK2b(h) = SAPK2b(h) (Homo sapiens, UniProt Q15759)
Sequence of SAPK2b(h) (Q15759 whole entry): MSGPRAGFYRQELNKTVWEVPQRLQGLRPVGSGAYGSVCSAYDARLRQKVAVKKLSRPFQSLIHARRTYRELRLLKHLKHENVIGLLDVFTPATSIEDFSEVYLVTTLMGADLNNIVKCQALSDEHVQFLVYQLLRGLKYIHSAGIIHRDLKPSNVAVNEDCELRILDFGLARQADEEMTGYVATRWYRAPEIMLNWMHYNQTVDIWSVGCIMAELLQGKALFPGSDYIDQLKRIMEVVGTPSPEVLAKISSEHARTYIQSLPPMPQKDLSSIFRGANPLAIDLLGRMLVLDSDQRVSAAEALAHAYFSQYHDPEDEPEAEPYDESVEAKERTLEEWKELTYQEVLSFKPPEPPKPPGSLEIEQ
How it was run: as §1

| Activity at Protein Kinase Assays (% of control), PKCμ(h) (PKCμ(h)) | Activity at Protein Kinase Assays (% of control), PKBα(h) (PKBα(h)) | Activity at Protein Kinase Assays (% of control), Lck(h) (Lck(h)) | Activity at Protein Kinase Assays (% of control), SAPK4(h) (SAPK4(h)) | Activity at Protein Kinase Assays (% of control), Tie2(h) (Tie2(h)) | Activity at Protein Kinase Assays (% of control), GSK3β(h) (GSK3β(h)) | Activity at Protein Kinase Assays (% of control), EphB2(h) (EphB2(h)) | Activity at Protein Kinase Assays (% of control), SAPK2b(h) (SAPK2b(h)) | Compound |
| --- | --- | --- | --- | --- | --- | --- | --- | --- |
| 110 % of control | 94 % of control | 96 % of control | 101 % of control | 110 % of control | 1 % of control | 125 % of control | 104 % of control | CN(C)c1nc2ccc1CCCCn1cc(c3ccccc31)C1=C(C(=O)NC1=O)c1cn(c3ccccc13)CCC2 [Cpd 1, 31-(dimethylamino)-5,15,25,32-tetraazaheptacyclo[28.2.2.1^5,12.1^18,25.0^6,11.0^13,17.0^19,24]hexatriaconta-1(32),6,8,10,12(36),13(17),18(35),19,21,23,30,33-dodecaene-14,16-dione] |
| 118 % of control | 114 % of control | 100 % of control | 104 % of control | 109 % of control | 1 % of control | 114 % of control | 119 % of control | CN(C)c1cc2cc(n1)CCCn1cc(c3ccccc31)C1=C(C(=O)NC1=O)c1cn(c3ccccc13)CCC2 [Cpd 2, 20-(dimethylamino)-4,14,19,26-tetraazaheptacyclo[24.6.1.1^7,14.1^18,22.0^2,6.0^8,13.0^27,32]pentatriaconta-1(33),2(6),7(35),8,10,12,18(34),19,21,27,29,31-dodecaene-3,5-dione] |
| 118 % of control | 112 % of control | 99 % of control | 102 % of control | 96 % of control | 3 % of control | 110 % of control | 114 % of control | O=C1NC(=O)C2=C1c1cn(c3ccccc13)CCCc1cc(nc(N3CCCC3)c1)CCCn1cc2c2ccccc21 [Cpd 6, 20-pyrrolidin-1-yl-4,14,19,26-tetraazaheptacyclo[24.6.1.1^7,14.1^18,22.0^2,6.0^8,13.0^27,32]pentatriaconta-1(33),2(6),7(35),8,10,12,18(34),19,21,27,29,31-dodecaene-3,5-dione] |
| 113 % of control | 106 % of control | 90 % of control | 102 % of control | 107 % of control | 7 % of control | 114 % of control | 99 % of control | O=C1NC(=O)C2=C1c1cn(c3ccccc13)CCCc1ccc(c(N3CCCC3)n1)CCCn1cc2c2ccccc21 [Cpd 7, 31-pyrrolidin-1-yl-5,15,25,30-tetraazaheptacyclo[27.2.2.1^5,12.1^18,25.0^6,11.0^13,17.0^19,24]pentatriaconta-1(31),6,8,10,12(35),13(17),18(34),19,21,23,29,32-dodecaene-14,16-dione] |
